Results published in the kinase profiling compilation of Christmann-Franck et al. (2016).

What was measured:
Experiment in all cases: KINOMEscan competition binding
Conditions in all cases: compound 10.0 µM
[1] = target: SRMS (human) (UniProt Q9H3Y6)
[2] = target: TTK (human) (UniProt P33981)
[3] = target: MAP2K1 (human) (UniProt Q02750)
[4] = target: INSRR (human) (UniProt P14616)
[5] = target: PLK4 (human) (UniProt O00444)
[6] = target: ITK (human) (UniProt Q08881)
[7] = target: LYN (human) (UniProt P07948)
[8] = target: DCLK3 (human) (UniProt Q9C098)
[9] = target: MAPK12 (human) (UniProt P53778)
[10] = target: MARK4 (human) (UniProt Q96L34)
[11] = target: CSNK2A1 (human) (UniProt P68400)
[12] = target: PKN2 (human) (UniProt Q16513)
[13] = target: TSSK1B (human) (UniProt Q9BXA7)
[14] = target: CAMK1G (human) (UniProt Q96NX5)
[15] = target: CSF1R (human) (UniProt P07333)
[16] = target: GSK3B (human) (UniProt P49841)
[17] = target: SYK (human) (UniProt P43405)
[18] = target: SRPK3 (human) (UniProt Q9UPE1)
[19] = target: RPS6KA6 KD1 (human) (UniProt Q9UK32)
[20] = target: RIPK1 (human) (UniProt Q13546)
[21] = target: CAMK2D (human) (UniProt Q13557)
[22] = target: EPHA1 (human) (UniProt P21709)
[23] = target: FGFR1 (human) (UniProt P11362)
[24] = target: SLK (human) (UniProt Q9H2G2)
[25] = target: CDK5 (human) (UniProt Q00535)
[26] = target: RPS6KA4 KD2 (human) (UniProt O75676)
[27] = target: NEK5 (human) (UniProt Q6P3R8)
[28] = target: PRKCH (human) (UniProt P24723)
[29] = target: CHEK1 (human) (UniProt O14757)
[30] = target: ROCK2 (human) (UniProt O75116)
[31] = target: MAPKAPK2 (human) (UniProt P49137)
[32] = target: PKN1 (human) (UniProt Q16512)
[33] = target: AXL (human) (UniProt P30530)
[34] = target: MAP2K2 (human) (UniProt P36507)
[35] = target: ULK3 (human) (UniProt Q6PHR2)
[36] = target: FLT1 (human) (UniProt P17948)
[37] = target: CHUK (human) (UniProt O15111)
[38] = target: DMPK (human) (UniProt Q09013)
[39] = target: NTRK2 (human) (UniProt Q16620)
[40] = target: MAP3K12 (human) (UniProt Q12852)

Sequence of GSK3B (human) (P49841 whole entry, looked up): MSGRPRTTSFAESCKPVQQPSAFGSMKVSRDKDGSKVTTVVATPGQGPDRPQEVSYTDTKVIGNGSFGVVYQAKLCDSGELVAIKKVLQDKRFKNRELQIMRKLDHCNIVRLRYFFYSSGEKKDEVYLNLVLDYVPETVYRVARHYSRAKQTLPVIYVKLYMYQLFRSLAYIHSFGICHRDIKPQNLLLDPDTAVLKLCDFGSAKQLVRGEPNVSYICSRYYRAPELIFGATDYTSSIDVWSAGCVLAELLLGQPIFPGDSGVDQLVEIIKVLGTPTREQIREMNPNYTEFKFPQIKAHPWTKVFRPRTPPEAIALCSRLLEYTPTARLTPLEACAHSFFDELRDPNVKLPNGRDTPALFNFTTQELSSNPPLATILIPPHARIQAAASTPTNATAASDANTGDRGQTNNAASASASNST
Sequence of MAP2K1 (human) (Q02750 whole entry, looked up): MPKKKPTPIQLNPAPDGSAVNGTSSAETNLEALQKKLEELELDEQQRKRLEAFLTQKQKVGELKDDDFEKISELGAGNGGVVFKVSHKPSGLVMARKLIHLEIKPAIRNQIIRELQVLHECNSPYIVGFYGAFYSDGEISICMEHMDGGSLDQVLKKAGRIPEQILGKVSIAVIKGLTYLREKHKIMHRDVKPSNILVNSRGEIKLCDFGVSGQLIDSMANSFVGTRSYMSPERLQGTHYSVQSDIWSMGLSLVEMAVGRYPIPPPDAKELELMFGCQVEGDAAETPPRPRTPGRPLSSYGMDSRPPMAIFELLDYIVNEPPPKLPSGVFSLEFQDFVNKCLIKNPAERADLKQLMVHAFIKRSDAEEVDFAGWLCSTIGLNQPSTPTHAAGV
Sequence of CSNK2A1 (human) (P68400 whole entry, looked up): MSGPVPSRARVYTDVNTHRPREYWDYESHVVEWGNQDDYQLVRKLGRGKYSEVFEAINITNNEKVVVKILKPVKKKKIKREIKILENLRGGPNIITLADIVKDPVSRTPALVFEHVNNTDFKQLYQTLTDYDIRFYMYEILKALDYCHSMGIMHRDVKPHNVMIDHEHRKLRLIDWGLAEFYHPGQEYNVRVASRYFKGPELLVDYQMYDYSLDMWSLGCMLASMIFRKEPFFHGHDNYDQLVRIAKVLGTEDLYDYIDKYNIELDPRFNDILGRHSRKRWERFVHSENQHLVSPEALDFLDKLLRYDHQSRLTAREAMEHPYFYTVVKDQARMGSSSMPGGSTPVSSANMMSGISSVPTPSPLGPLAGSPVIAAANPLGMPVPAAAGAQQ
Sequence of DMPK (human) (Q09013 whole entry, looked up): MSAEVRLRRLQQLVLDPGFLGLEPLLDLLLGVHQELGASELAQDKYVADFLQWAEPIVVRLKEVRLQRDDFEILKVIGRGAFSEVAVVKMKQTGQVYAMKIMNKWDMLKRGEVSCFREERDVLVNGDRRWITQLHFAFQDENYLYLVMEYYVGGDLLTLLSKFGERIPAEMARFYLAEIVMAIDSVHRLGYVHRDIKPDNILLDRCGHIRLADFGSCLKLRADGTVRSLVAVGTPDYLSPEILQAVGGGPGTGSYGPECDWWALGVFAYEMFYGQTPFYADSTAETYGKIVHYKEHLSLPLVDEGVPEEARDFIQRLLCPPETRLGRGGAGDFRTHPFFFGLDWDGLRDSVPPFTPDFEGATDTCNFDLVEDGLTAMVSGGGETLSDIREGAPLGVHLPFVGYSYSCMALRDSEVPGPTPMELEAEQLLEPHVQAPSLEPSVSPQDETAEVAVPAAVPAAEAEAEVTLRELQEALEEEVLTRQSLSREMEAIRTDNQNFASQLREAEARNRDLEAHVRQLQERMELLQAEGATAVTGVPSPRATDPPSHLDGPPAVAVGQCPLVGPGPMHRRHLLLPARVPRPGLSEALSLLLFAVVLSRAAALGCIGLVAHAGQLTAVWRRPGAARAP
Sequence of ROCK2 (human) (O75116 whole entry, looked up): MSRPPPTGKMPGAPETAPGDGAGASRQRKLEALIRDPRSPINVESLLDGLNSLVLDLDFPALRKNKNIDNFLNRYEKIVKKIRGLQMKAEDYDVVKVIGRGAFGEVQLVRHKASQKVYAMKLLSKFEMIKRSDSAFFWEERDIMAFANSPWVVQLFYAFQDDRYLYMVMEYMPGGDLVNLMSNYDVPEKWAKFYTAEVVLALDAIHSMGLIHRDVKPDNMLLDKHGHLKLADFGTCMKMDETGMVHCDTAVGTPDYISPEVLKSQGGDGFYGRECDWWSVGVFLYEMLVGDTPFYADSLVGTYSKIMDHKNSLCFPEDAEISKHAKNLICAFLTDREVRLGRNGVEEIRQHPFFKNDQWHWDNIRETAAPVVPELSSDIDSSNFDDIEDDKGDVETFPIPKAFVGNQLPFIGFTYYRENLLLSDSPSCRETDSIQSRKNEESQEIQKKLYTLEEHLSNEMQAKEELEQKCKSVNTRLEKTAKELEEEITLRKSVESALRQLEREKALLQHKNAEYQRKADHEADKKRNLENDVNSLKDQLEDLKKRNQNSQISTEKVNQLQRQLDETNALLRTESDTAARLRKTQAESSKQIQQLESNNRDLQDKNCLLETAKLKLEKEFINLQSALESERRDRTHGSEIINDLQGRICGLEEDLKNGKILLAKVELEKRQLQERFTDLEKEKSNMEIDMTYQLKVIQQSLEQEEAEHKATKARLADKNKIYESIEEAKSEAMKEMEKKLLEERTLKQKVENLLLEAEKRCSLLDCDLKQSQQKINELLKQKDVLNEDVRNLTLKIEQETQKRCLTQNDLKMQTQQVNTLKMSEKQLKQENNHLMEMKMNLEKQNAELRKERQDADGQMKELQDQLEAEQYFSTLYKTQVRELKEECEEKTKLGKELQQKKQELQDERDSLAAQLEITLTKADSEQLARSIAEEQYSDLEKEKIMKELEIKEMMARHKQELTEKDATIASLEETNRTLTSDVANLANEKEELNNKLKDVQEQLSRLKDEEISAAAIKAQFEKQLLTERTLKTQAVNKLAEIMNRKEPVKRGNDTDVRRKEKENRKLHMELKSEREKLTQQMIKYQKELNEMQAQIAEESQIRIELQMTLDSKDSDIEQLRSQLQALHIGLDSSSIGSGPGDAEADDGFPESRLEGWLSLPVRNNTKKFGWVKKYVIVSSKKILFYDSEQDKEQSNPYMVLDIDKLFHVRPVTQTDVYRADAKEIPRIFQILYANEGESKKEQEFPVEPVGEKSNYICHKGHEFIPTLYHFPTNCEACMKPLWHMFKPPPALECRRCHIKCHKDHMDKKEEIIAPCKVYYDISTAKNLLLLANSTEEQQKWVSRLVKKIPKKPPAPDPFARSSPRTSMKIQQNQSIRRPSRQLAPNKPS
Sequence of RIPK1 (human) (Q13546 whole entry, looked up): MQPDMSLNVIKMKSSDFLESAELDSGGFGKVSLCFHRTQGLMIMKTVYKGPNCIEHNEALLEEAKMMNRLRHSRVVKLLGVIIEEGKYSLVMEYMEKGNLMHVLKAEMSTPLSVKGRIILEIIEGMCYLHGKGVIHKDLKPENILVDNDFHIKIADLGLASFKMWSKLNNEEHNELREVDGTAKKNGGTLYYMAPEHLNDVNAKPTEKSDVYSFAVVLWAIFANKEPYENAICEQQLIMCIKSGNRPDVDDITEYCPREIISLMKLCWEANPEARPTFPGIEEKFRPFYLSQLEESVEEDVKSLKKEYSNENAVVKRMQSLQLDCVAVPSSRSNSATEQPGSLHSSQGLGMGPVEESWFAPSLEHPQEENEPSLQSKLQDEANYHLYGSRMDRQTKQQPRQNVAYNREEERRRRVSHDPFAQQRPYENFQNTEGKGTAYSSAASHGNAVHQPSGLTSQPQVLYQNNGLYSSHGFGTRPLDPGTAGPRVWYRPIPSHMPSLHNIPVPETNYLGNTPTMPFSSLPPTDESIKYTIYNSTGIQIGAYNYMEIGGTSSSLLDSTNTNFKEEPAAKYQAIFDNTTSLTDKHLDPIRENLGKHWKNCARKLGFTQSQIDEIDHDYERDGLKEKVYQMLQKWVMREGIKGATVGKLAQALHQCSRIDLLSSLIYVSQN
Sequence of CHUK (human) (O15111 whole entry, looked up): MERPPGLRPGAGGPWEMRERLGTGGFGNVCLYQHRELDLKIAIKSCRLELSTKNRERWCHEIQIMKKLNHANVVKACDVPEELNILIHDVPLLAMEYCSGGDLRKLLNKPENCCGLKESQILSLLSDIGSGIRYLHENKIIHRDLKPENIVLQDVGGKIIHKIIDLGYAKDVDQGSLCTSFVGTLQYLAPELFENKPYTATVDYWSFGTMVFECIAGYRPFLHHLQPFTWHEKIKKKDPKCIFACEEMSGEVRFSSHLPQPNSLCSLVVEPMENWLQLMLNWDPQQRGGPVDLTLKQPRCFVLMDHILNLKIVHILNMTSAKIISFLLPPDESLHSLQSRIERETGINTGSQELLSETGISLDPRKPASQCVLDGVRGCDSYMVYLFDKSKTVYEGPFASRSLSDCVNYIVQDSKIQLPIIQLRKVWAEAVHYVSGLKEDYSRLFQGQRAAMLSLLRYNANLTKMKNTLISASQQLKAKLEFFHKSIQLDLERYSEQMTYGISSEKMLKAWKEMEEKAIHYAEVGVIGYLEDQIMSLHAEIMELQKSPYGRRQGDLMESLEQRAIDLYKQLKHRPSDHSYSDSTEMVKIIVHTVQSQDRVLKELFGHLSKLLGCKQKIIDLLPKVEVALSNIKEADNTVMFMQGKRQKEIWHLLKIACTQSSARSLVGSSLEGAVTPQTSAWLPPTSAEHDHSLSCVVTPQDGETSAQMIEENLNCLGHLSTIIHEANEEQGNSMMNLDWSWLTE
Sequence of TSSK1B (human) (Q9BXA7 whole entry, looked up): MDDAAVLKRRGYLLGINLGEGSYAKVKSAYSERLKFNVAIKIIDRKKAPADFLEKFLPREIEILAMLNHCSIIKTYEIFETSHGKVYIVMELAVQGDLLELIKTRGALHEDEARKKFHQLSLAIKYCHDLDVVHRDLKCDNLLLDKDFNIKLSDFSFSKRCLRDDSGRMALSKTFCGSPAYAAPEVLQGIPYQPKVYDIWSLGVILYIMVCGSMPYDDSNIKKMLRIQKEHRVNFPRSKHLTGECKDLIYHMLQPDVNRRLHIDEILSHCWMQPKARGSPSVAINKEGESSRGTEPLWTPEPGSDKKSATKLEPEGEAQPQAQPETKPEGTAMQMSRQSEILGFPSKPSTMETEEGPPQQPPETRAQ

Q: What does the source list for `Cc1ccc(NC(=O)c2cccc(C(C)(C)C#N)c2)cc1Nc1ccc2ncn(C)c(=O)c2c1`?
A: kinase still bound, per cent of control [1]: 7.4%; kinase still bound, per cent of control [2]: 95%; kinase still bound, per cent of control [3]: 100%; kinase still bound, per cent of control [4]: 100%; kinase still bound, per cent of control [5]: 87%; kinase still bound, per cent of control [6]: 100%; kinase still bound, per cent of control [7]: 0.3%; kinase still bound, per cent of control [8]: 100%; kinase still bound, per cent of control [9]: 45%; kinase still bound, per cent of control [10]: 100%; kinase still bound, per cent of control [11]: 88%; kinase still bound, per cent of control [12]: 100%; kinase still bound, per cent of control [13]: 79%; kinase still bound, per cent of control [14]: 100%; kinase still bound, per cent of control [15]: 0.1%; kinase still bound, per cent of control [16]: 95%; kinase still bound, per cent of control [17]: 100%; kinase still bound, per cent of control [18]: 100%; kinase still bound, per cent of control [19]: 87%; kinase still bound, per cent of control [20]: 83%; kinase still bound, per cent of control [21]: 100%; kinase still bound, per cent of control [22]: 10%; kinase still bound, per cent of control [23]: 59%; kinase still bound, per cent of control [24]: 68%; kinase still bound, per cent of control [25]: 100%; kinase still bound, per cent of control [26]: 94%; kinase still bound, per cent of control [27]: 33%; kinase still bound, per cent of control [28]: 100%; kinase still bound, per cent of control [29]: 84%; kinase still bound, per cent of control [30]: 80%; kinase still bound, per cent of control [31]: 100%; kinase still bound, per cent of control [32]: 100%; kinase still bound, per cent of control [33]: 75%; kinase still bound, per cent of control [34]: 100%; kinase still bound, per cent of control [35]: 97%; kinase still bound, per cent of control [36]: 4.4%; kinase still bound, per cent of control [37]: 72%; kinase still bound, per cent of control [38]: 90%; kinase still bound, per cent of control [39]: 77%; kinase still bound, per cent of control [40]: 74%

Q: Which kinase still bound, per cent of control [1] does the source give for `CCN1CCN(Cc2ccc(Nc3ncc4c(n3)N(C)c3ccccc3C(=O)N4C)cc2C(F)(F)F)CC1` here?
A: 54%

Q: What about the kinase still bound, per cent of control [2] of the same molecule?
A: 77%

Q: And the kinase still bound, per cent of control [3]?
A: 86%

Q: What about the kinase still bound, per cent of control [4] of the same molecule?
A: 100%

Q: What about the kinase still bound, per cent of control [5] of the same molecule?
A: 0.1%

Q: And the kinase still bound, per cent of control [6]?
A: 100%

Q: What about the kinase still bound, per cent of control [7] of the same molecule?
A: 61%

Q: What about the kinase still bound, per cent of control [8] of the same molecule?
A: 68%

Q: And the kinase still bound, per cent of control [9]?
A: 97%

Q: What about the kinase still bound, per cent of control [10] of the same molecule?
A: 19%

Q: And the kinase still bound, per cent of control [11]?
A: 79%

Q: And the kinase still bound, per cent of control [12]?
A: 55%

Q: And the kinase still bound, per cent of control [13]?
A: 49%

Q: And the kinase still bound, per cent of control [14]?
A: 61%

Q: What about the kinase still bound, per cent of control [15] of the same molecule?
A: 0.5%

Q: What about the kinase still bound, per cent of control [16] of the same molecule?
A: 47%

Q: And the kinase still bound, per cent of control [17]?
A: 78%

Q: And the kinase still bound, per cent of control [18]?
A: 57%

Q: What about the kinase still bound, per cent of control [19] of the same molecule?
A: 19%

Q: What about the kinase still bound, per cent of control [20] of the same molecule?
A: 24%

Q: And the kinase still bound, per cent of control [21]?
A: 69%

Q: What about the kinase still bound, per cent of control [22] of the same molecule?
A: 61%

Q: And the kinase still bound, per cent of control [23]?
A: 17%

Q: What about the kinase still bound, per cent of control [24] of the same molecule?
A: 2.4%

Q: And the kinase still bound, per cent of control [25]?
A: 84%

Q: What about the kinase still bound, per cent of control [26] of the same molecule?
A: 100%

Q: What about the kinase still bound, per cent of control [27] of the same molecule?
A: 77%

Q: What about the kinase still bound, per cent of control [28] of the same molecule?
A: 100%

Q: And the kinase still bound, per cent of control [29]?
A: 57%

Q: What about the kinase still bound, per cent of control [30] of the same molecule?
A: 100%

Q: And the kinase still bound, per cent of control [31]?
A: 100%

Q: And the kinase still bound, per cent of control [32]?
A: 76%

Q: And the kinase still bound, per cent of control [33]?
A: 11%

Q: What about the kinase still bound, per cent of control [34] of the same molecule?
A: 89%

Q: And the kinase still bound, per cent of control [35]?
A: 7.4%

Q: And the kinase still bound, per cent of control [36]?
A: 100%

Q: What about the kinase still bound, per cent of control [37] of the same molecule?
A: 100%

Q: And the kinase still bound, per cent of control [38]?
A: 91%

Q: What about the kinase still bound, per cent of control [39] of the same molecule?
A: 60%

Q: And the kinase still bound, per cent of control [40]?
A: 49%
